Reference: patent publication US8586552B2, “4,6-substituted 2,5-dideoxystreptamine aminoglycoside antibiotics” (SelectX Pharmaceuticals, Inc., priority 2012, dated 2013)
Converted amounts (≈) assume the structure as drawn.

Tests used:
Type in all cases: cell-based
[1] = test system: fifty resistant contemporary clinical isolates of Klebsiella pneumoniae; test: MIC90 against panel of resistant clinical isolates of Klebsiella pneumoniae; conditions: Klebsiella pneumoniae; fifty resistant contemporary clinical isolates, reference antibiotics
From the text: Using this stringent Klebsiella pneumoniae panel, we tested a subset of compounds of the invention.

[2] = test system: more than fifty resistant contemporary clinical isolates of Pseudomonas aeruginosa; test: MIC90 against panel of resistant clinical isolates of Pseudomonas aeruginosa; conditions: Pseudomonas aeruginosa
From the text: To assess this, a panel of more than fifty resistant contemporary clinical isolates of Pseudomonas aeruginosa were obtained from multiple sources including JMI Laboratories (North Liberty, Iowa), Pfizer (Groton, Conn.), Micromyx (Kalamazoo, Mich.), Dr. J. Chow (Wayne State University). Strains were characterized for resistance to a wide variety of classes of antibiotics including aminoglycosides, β-lactams and fluoroquinolones. […] This reflects the difficulty in treating clinical Pseudomonas aeruginosa infections. […] Using this stringent panel, we tested a subset of compounds of the invention (Table 4).

[3] = test system: Pseudomonas aeruginosa PR3 (high-level, efflux-mediated, pan-aminoglycoside resistance); test: MIC against Pseudomonas aeruginosa clinical isolate PR3; conditions: for MIC PR3: Pseudomonas aeruginosa resistant strain PR3
From the text: (§1) Pseudomonas aeruginosa is a prominent nosocomial pathogen. In addition to intrinsic antibiotic resistance to several antibiotics, Pseudomonas has acquired multiple additional mechanisms of resistance. As a result, therapeutic options for the treatment of infections caused by Pseudomonas aeruginosa are limited. We acquired clinical isolates of Pseudomonas aeruginosa (Micromyx LLC, Kalamazoo, Mich.), and used this panel to test compounds for Pseudomonicidal activity. […] For each strain and antibiotic, the mechanism(s) of resistance was inferred from the resistance profile. The presence of specific AGMEs was confirmed by colony PCR.

[4] = test system: Pseudomonas aeruginosa (Pae, PAWT, ATCC #27853); test: MIC against Pseudomonas aeruginosa reference strain PAWT; conditions: Pseudomonas aeruginosa wild type PAWT
From the text: (§2) For evaluation of efficacy, we assembled panels of representative gram-negative pathogens, including Pseudomonas aeruginosa (Pae, PAWT, ATCC #27853), Klebsiella pneumoniae (Kpn, KPWT, ATCC #700603), Acinetobacter baumannii (Aba, ABWT, ATCC #BAA-747) and Escherichia coli (Eco, ECWT, ATCC #25922). These reference strains are useful indicator organisms to characterize compound activity against bacteria from a pathogenic genus in the absence of multiple resistance mechanisms. Two strains (PAWT and ECWT) are reference strains cited within the Clinical and Laboratory Standards Institute (CLSI) Standards for susceptibility testing by Minimum Inhibitory Concentration (MIC) (SXPS2) and are well suited for quality control. ABWT and ECWT are widely susceptible to aminoglycoside antibiotics, whereas PAWT and KPWT harbor a single aminoglycoside-modifying enzyme (AGME) that targets 4,6-substituted-2-deoxystreptamine AGs. […]

[5] = test system: Pseudomonas aeruginosa PR2 (clinical isolate with intermediate aminoglycoside resistance); test: MIC against Pseudomonas aeruginosa clinical isolate PR2; conditions: Pseudomonas aeruginosa resistant strain PR2
From the text: as §1

[6] = test system: Pseudomonas aeruginosa PR1 (clinical isolate with intermediate aminoglycoside resistance); test: MIC against Pseudomonas aeruginosa clinical isolate PR1; conditions: Pseudomonas aeruginosa resistant strain PR1
From the text: as §1

[7] = test system: Acinetobacter baumannii (Aba, ABWT, ATCC #BAA-747); test: MIC against Acinetobacter baumannii reference strain ABWT; conditions: ATCCBAA747
From the text: as §2

[8] = test system: Escherichia coli (Eco, ECWT, ATCC #25922); test: MIC against Escherichia coli reference strain ECWT; conditions: ATCC25922
From the text: For evaluation of efficacy, we assembled panels of representative gram-negative pathogens, including Pseudomonas aeruginosa (Pae, PAWT, ATCC #27853), Klebsiella pneumoniae (Kpn, KPWT, ATCC #700603), Acinetobacter baumannii (Aba, ABWT, ATCC #BAA-747) and Escherichia coli (Eco, ECWT, ATCC #25922). These reference strains are useful indicator organisms to characterize compound activity against bacteria from a pathogenic genus in the absence of multiple resistance mechanisms. Two strains (PAWT and ECWT) are reference strains cited within the Clinical and Laboratory Standards Institute (CLSI) Standards for susceptibility testing by Minimum Inhibitory Concentration (MIC) (SXPS2) and are well suited for quality control. ABWT and ECWT are widely susceptible to aminoglycoside antibiotics, whereas PAWT and KPWT harbor a single aminoglycoside-modifying enzyme (AGME) that targets 4,6-substituted-2-deoxystreptamine AGs.

[9] = test system: Klebsiella pneumoniae (Kpn, KPWT, ATCC #700603); test: MIC against Klebsiella pneumoniae reference strain KPWT; conditions: Klebsiella pneumoniae KPWT, Table 2
From the text: as §2, with “These reference strains are useful indicator organisms to characterize compound activity against bacteria from a pathogenic genus in the absence of multiple resistance mechanisms.” left out

C[C@H]1[C@H](NC(=O)/C(=N\OC(C)(C)C(=O)O)c2csc(N)n2)C(=O)N1S(=O)(=O)O [aztreonam]
MIC90 [1]: ≥ 64 µg/mL | MIC90 [2]: ≥ 64 µg/mL

C[C@@H](O)[C@H]1C(=O)N2C(C(=O)O)=C(S[C@@H]3CN[C@H](CNS(N)(=O)=O)C3)[C@H](C)[C@H]12 [doripenem]
MIC90 [1]: ≥ 64 µg/mL | MIC90 [2]: ≥ 64 µg/mL

CC(C)[C@H](N)C(=O)NC[C@H]1O[C@H](O[C@@H]2[C@H](F)[C@H](O[C@H]3O[C@H](CN)[C@@H](O)[C@H](O)[C@H]3O)[C@@H](N)C[C@H]2NC(=O)[C@@H](O)CCN)[C@H](O)[C@@H](N)[C@@H]1O [SXP1212-56″-8]
MIC PR3 [3]: 64 µg/mL (≈ 93.3 µM) | MIC PAWT [4]: 4 µg/mL (≈ 5.83 µM) | MIC PR2 [5]: 8 µg/mL (≈ 11.7 µM) | MIC PR1 [6]: 8 µg/mL (≈ 11.7 µM)

NCC[C@H](O)C(=O)N[C@@H]1C[C@H](N)[C@@H](O[C@H]2O[C@H](CN)[C@@H](O)[C@H](O)[C@H]2O)[C@@H](F)[C@H]1O[C@H]1O[C@H](CNC(=O)[C@H](N)CCCNC(N)=O)[C@@H](O)[C@H](N)[C@H]1O [SXP1212-56″-7]
MIC PR3 [3]: 128 µg/mL (≈ 172 µM) | MIC PAWT [4]: 4 µg/mL (≈ 5.38 µM) | MIC PR2 [5]: 16 µg/mL (≈ 21.5 µM) | MIC PR1 [6]: 16 µg/mL (≈ 21.5 µM)

NC[C@H]1O[C@H](O[C@H]2[C@H](O)[C@@H](O[C@H]3O[C@H](CO)[C@@H](O)[C@H](N)[C@H]3O)[C@H](N)C[C@@H]2N)[C@H](N)C[C@@H]1O [tobramycin]
MIC ([3]; Pseudomonas aeruginosa, read-out: MIC PR3): > 64 µg/mL | MIC ([4]; ATCC27853): 0.25 µg/mL (≈ 0.535 µM) | MIC90 [1]: ≥ 64 µg/mL | MIC90 [2]: ≥ 64 µg/mL | MIC [5]: > 64 µg/mL | MIC [7]: 0.25 µg/mL (≈ 0.535 µM) | MIC [8]: 1 µg/mL (≈ 2.14 µM) | MIC [6]: 2 µg/mL (≈ 4.28 µM) | MIC ([9]; ATCC700603): 8 µg/mL (≈ 17.1 µM)

C[C@@H](O)[C@H]1C(=O)N2C(C(=O)O)=C(SCCN=CN)C[C@H]12 [imipenem]
MIC90 [1]: ≥ 64 µg/mL | MIC90 [2]: ≥ 64 µg/mL

C[C@H]1COc2c(N3CCN(C)CC3)c(F)cc3c(=O)c(C(=O)O)cn1c23 [levofloxacin]
MIC90 [1]: ≥ 64 µg/mL | MIC90 [2]: ≥ 64 µg/mL

CN[C@@H]1[C@@H](O)[C@@H](O[C@@H]2[C@@H](O)[C@H](O[C@H]3OC(CN)=CC[C@H]3N)[C@@H](N)C[C@H]2N)OC[C@]1(C)O [sisomycin]
MIC PR3 [3]: >64 µg/mL | MIC PAWT [4]: 0.25 to 0.5 µg/mL | MIC PR2 [5]: >64 µg/mL | MIC PR1 [6]: 4 µg/mL (≈ 8.94 µM) | MIC KPWT [9]: 1 to 2 µg/mL

CCN1CCN(C(=O)N[C@@H](C(=O)N[C@@H]2C(=O)N3[C@@H]2SC(C)(C)[C@@H]3C(=O)O)c2ccccc2)C(=O)C1=O [piperacillin]
MIC90 [1]: ≥ 64 µg/mL | MIC90 [2]: ≥ 64 µg/mL

CO/N=C(\C(=O)N[C@@H]1C(=O)N2C(C(=O)[O-])=C(C[N+]3(C)CCCC3)CS[C@H]12)c1csc(N)n1 [cefepime]
MIC90 [1]: ≥ 64 µg/mL | MIC90 [2]: ≥ 64 µg/mL
